US20230143751A1, “Aromatic Compound And Use Thereof In Preparing Antineoplastic Drugs” (Shanghai Zheye Biotechnology Co. Ltd., priority 2020, published 2023)
Where two headings read alike, the source gives them in different places.

How the values were obtained:
Format in all cases: cell-based
NCI-H358 cells = assay: Cell proliferation activity of NCI-H358 by CellTiter-Glo reagent; conditions: for IC50: Homo sapiens, read-out: IC50 value of cell proliferation inhibitory activity of NCI-H358
Procedure: NCI-H358 cells in exponential growth phase were digested with trypsin-EDTA, plated in a 96-well plate with 2000-3000 cells per well, and incubated overnight at 37° C. with 5% CO2. […] After the incubation, CellTiter-Glo test reagent with an equal volume was added into each well and the obtained 96-well plate was incubated after shaking. The chemiluminescence values were determined by microplate reader, and the IC50 values of the test compounds inhibiting the proliferation of NCI-H358 cells were fitted and calculated by GraphPad Prism software.
The test method of inhibitory activity was the same as that in Test 3 in “Biological Tests” part.

NCI-H358 = assay: Cell proliferation inhibitory activity on NCI-H358, 3D model test (agarose colony formation); conditions: for IC50: Homo sapiens, NCI-H358, 3D agarose colony formation, NBT staining
Procedure: 100 μl of agarose gel with a high concentration was spread in a 96-well plate as the bottom agarose gel layer. Agarose with a low concentration and growth medium containing cells were mixed and then spread on the bottom agar layer, cooled and solidified, then incubated overnight at 37° C. Mother solutions were prepared from the test compounds by using DMSO, and then subjected to gradient elution with RPMI 1640 growth medium. The solutions of test compounds with different concentrations after gradient elution were added to the 96-well plate comprising an upper layer of agar gel-cells. Solvent control well was set up and the plate was incubated in a CO2 incubator. The drug-containing medium was changed during the incubation period and the cell growth situation was observed. After the incubation, the cells were stained with NBT and the number of cell colony formation was counted, and the IC50 values of the compounds inhibiting cell proliferation were derived.

MIA PaCa-2 cells = assay: Cell proliferation activity of MIA PaCa-2 by CellTiter-Glo reagent; conditions: 72 h, CellTiter-Glo; for IC50: Homo sapiens, MIA PaCa-2, read-out: IC50 value of cell proliferation inhibitory activity of the compound on MIA PaCa-2
Procedure: MIA PaCa-2 cells in exponential growth phase were digested with trypsin-EDTA, plated in a 96-well plate with 2000-3000 cells per well, and incubated overnight at 37° C. with 5% CO2. Mother solutions were prepared from the test compounds by using DMSO, subjected to gradient elution with DMEM growth medium, and then added into the 96-well plate and incubated in an incubator for 72 h at 37° C. with 5% CO2. After the incubation, CellTiter-Glo test reagent with an equal volume was added into each well and the obtained 96-well plate was incubated after shaking. The chemiluminescence values were determined by microplate reader, and the IC50 values of the test compounds inhibiting the proliferation of MIA PaCa-2 cells were fitted and calculated by GraphPad Prism software.
The test method of inhibitory activity was the same as that in Test 2 in “Biological Tests” part.

[1] = NCI-H358, test 4, method of test 3
[2] = NCI-H358, 72 h, 72 h, CellTiter-Glo, test 3

| IC50 (NCI-H358 cells; [1]) | IC50 (NCI-H358) | SMILES | anti-cell proliferation activity against KRAS G12C mutant type cells NCI-H358 (in words) (NCI-H358 cells; 72 h, CellTiter-Glo) | also measured |
| --- | --- | --- | --- | --- |
| – | < 50 nM | [2H]C([2H])=Cc1ccccc1-c1nc2c(cc1Cl)c(N1CCN(C(=O)C=C)C[C@@H]1C)nc(=O)n2-c1c(C)ccnc1C(C)C [Compound 3-24] | – | IC50 (MIA PaCa-2 cells): < 50 nM |
| – | < 50 nM | [2H]C([2H])=Cc1cccc(F)c1-c1nc2c(cc1F)c(N1CCN(C(=O)C(=C)F)C[C@@H]1C)nc(=O)n2-c1c(C(C)C)ccnc1C(C)C [Compound 5-11] | – | – |
| – | < 50 nM | [2H]C([2H])=Cc1ccccc1-c1nc2c(cc1Cl)c(N1CCN(C(=O)C=C)C[C@@H]1C)nc(=O)n2-c1c(C(C)C)ccnc1C(C)C [Compound 5-8] | – | IC50 (MIA PaCa-2 cells): < 50 nM |
| – | < 50 nM | [2H]C([2H])=Cc1cccc(F)c1-c1nc2c(cc1F)c(N1[C@@H](C)CN(C(=O)C(=C)F)C[C@@H]1C)nc(=O)n2-c1c(C(C)C)ccnc1C(C)C [Compound 5-9] | – | – |
| – | < 50 nM | [2H]C([2H])=Cc1cccc(F)c1-c1nc2c(cc1F)c(N1CCN(C(=O)C(=C)F)C[C@@H]1C)nc(=O)n2-c1c(C([2H])([2H])[2H])ccnc1C(C)C [Compound 4-11] | – | – |

Further lines, the molecule ahead of its results:

| SMILES | IC50 (NCI-H358 cells; [1]) | IC50 (NCI-H358) | anti-cell proliferation activity against KRAS G12C mutant type cells NCI-H358 (in words) (NCI-H358 cells; 72 h, CellTiter-Glo) | also measured |
| --- | --- | --- | --- | --- |
| C=CC(=[18O])N1CCN(c2nc(=O)n(-c3c(C)ccnc3C(C)C)c3nc(-c4ccccc4C=C)c(Cl)cc23)[C@@H](C)C1 [Compound 3-1MIS] | < 50 nM | – | significant anti-cell proliferation activity | – |
| C=CC(=[18O])N1CCN(c2nc(=O)n(-c3c(C)ccnc3C(C)C)c3nc(-c4c(F)cccc4C=C)c(Cl)cc23)[C@@H](C)C1 [Compound 3-5MIS] | < 50 nM | – | significant anti-cell proliferation activity | – |
| C=CC(=O)N1C[C@H](C)N(c2nc(=O)n(-c3c(C)ccnc3C(C)C)c3nc(-c4c(F)cccc4C=C)c(Cl)cc23)[C@@H](C)C1 [Compound 3-8] | – | – | – | IC50 (MIA PaCa-2 cells): < 50 nM |
| [2H]C([2H])=Cc1cccc(F)c1-c1nc2c(cc1Cl)c(N1CCN(C(=[18O])C=C)C[C@@H]1C)nc(=O)n2-c1c(C)ccnc1C(C)C [Compound 3-9MIS] | < 50 nM | – | significant anti-cell proliferation activity | – |
| C=CC(=[18O])N1C[C@H](C)N(c2nc(=O)n(-c3c(C)ccnc3C(C)C)c3nc(-c4c(F)cccc4C=C)c(Cl)cc23)[C@@H](C)C1 [Compound 3-7MIS] | < 50 nM | – | significant anti-cell proliferation activity | – |
| [2H]C([2H])=Cc1ccccc1-c1nc2c(cc1Cl)c(N1[C@@H](C)CN(C(=O)C=C)C[C@@H]1C)nc(=O)n2-c1c(CC)ccnc1C(C)C [Compound 2-3] | – | – | significant anti-cell proliferation activity | – |
| C=CC(=O)N1CCN(c2nc(=O)n(-c3c(C)ccnc3C(C)C)c3nc(-c4ccccc4C=C)c(F)cc23)[C@@H](C)C1 [Compound 3-1] | – | < 50 nM | – | anti-cell proliferation activity against KRAS G12C mutant type cells NCI-H358 (in words) (NCI-H358; 3D model test): significant anti-cell proliferation activity; anti-cell proliferation activity against KRAS G12C mutant type cells MIA PaCa-2 (in words) (MIA PaCa-2 cells): significant anti-cell proliferation activity; IC50 (MIA PaCa-2 cells): < 50 nM |
| [2H]C([2H])=Cc1cccc(F)c1-c1nc2c(cc1Cl)c(N1CCN(C(=[18O])C=C)C[C@@H]1C)nc(=O)n2-c1c(CC)ccnc1C(C)C [Compound 3-12MIS] | < 50 nM | – | significant anti-cell proliferation activity | – |
| C=CC(=[18O])N1CCN(c2nc(=O)n(-c3c(CC)ccnc3C(C)C)c3nc(-c4ccccc4C=C)c(Cl)cc23)[C@@H](C)C1 [Compound 3-4MIS] | < 50 nM | – | significant anti-cell proliferation activity | – |
| [2H]/C=C(\[2H])C(=O)N1CCN(c2nc(=O)n(-c3c(CC)ccnc3C(C)C)c3nc(-c4c(F)cccc4C=C)c(Cl)cc23)[C@@H](C)C1 [Compound 2-8] | – | – | significant anti-cell proliferation activity | IC50 (NCI-H358 cells; [2]): < 50 nM |
| [2H]/C=C(\[2H])C(=O)N1CCN(c2nc(=O)n(-c3c(C)ccnc3C(C)C)c3nc(-c4c(F)cccc4C=C)c(Cl)cc23)[C@@H](C)C1 [Compound 3-51] | – | – | significant anti-cell proliferation activity | IC50 (NCI-H358 cells; [2]): < 50 nM |
